Test results as given in ChEMBL document CHEMBL1201862, “PubChem BioAssay data set” (2004).
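48-hour exposure; five concentrations; linearly interpolated endpoints. GI50: concentration for 50% inhibition of growth.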 Calls of active or inactive are those of the source. Cut-off read from the data, not from the text of the source: active = GI50 up to about 1.1 µM and inactive = higher.

Assays:
Assay in all cases: NCI-60 cell line screen, 48 h
[1] = system: SK-MEL-2
[2] = system: SR
[3] = system: EKVX
[4] = system: A498
[5] = system: MCF7
[6] = system: SNB-75
[7] = system: MDA-MB-231
[8] = system: COLO 205
[9] = system: OVCAR-3
[10] = system: KM12
[11] = system: NCI-H522
[12] = system: HT-29
[13] = system: HOP-62
[14] = system: HL-60
[15] = system: CAKI-1
[16] = system: SF-539
[17] = system: SF-268
[18] = system: SF-295
[19] = system: MDA-N
[20] = system: MOLT-4
[21] = system: RPMI-8226
[22] = system: T47D
[23] = system: K562
[24] = system: UO-31
[25] = system: CCRF-CEM
[26] = system: SK-MEL-5
[27] = system: MDA-MB-435
[28] = system: NCI-H226
[29] = system: IGROV-1
[30] = system: OVCAR-4
[31] = system: HCT-116
[32] = system: BT-549
[33] = system: HOP-92
[34] = system: SK-MEL-28
[35] = system: SNB-19
[36] = system: U-251
[37] = system: TK-10
[38] = system: NCI-H23
[39] = system: LOX IMVI
[40] = system: PC-3
[41] = system: DU-145
[42] = system: Malme-3M
[43] = system: NCI-H460
[44] = system: NCI/ADR-RES
[45] = system: SN12C
[46] = system: HCC 2998
[47] = system: UACC-257
[48] = system: A549
[49] = system: OVCAR-8
[50] = system: M14
[51] = system: SK-OV-3
[52] = system: Hs-578T
[53] = system: UACC-62
[54] = system: OVCAR-5
[55] = system: ACHN
[56] = system: SW-620
[57] = system: 786-0
[58] = system: HCT-15

## C=C1CC(CN2CCC(=O)NC2=O)(c2ccccc2)OC1=O (centres undefined)
[1]
  GI50: 12.6 µM (inactive)
[2]
  GI50: 2.09 µM (inactive)
[3]
  GI50: 18.8 µM (inactive)
[4]
  GI50: 19.2 µM (inactive)
[5]
  GI50: 1.64 µM (inactive)
[6]
  GI50: 18.1 µM (inactive)
[7]
  GI50: 15 µM (inactive)
[8]
  GI50: 2.36 µM (inactive)
[9]
  GI50: 13 µM (inactive)
[10]
  GI50: 20.9 µM (inactive)
[11]
  GI50: 0.859 µM (active)
[12]
  GI50: 7.71 µM (inactive)
[13]
  GI50: 21.3 µM (inactive)
[14]
  GI50: 1.62 µM (inactive)
[15]
  GI50: 2.75 µM (inactive)
[16]
  GI50: 13.7 µM (inactive)
[17]
  GI50: 23.6 µM (inactive)
[18]
  GI50: 20.7 µM (inactive)
[19]
  GI50: 10.8 µM (inactive)
[20]
  GI50: 2.25 µM (inactive)
[21]
  GI50: 2.19 µM (inactive)
[22]
  GI50: 3.13 µM (inactive)
[23]
  GI50: 2.39 µM (inactive)
[24]
  GI50: 18 µM (inactive)
[25]
  GI50: 1.84 µM (inactive)
[26]
  GI50: 12.4 µM (inactive)
[27]
  GI50: 8.89 µM (inactive)
[28]
  GI50: 15.6 µM (inactive)
[29]
  GI50: 7.87 µM (inactive)
[30]
  GI50: 1.81 µM (inactive)
[31]
  GI50: 3.35 µM (inactive)
[32]
  GI50: 7.21 µM (inactive)
[33]
  GI50: 1.45 µM (inactive)
[34]
  GI50: 13.4 µM (inactive)
[35]
  GI50: > 41.4 µM (inactive)
[36]
  GI50: 17.7 µM (inactive)
[37]
  GI50: 5.94 µM (inactive)
[38]
  GI50: 7.18 µM (inactive)
[39]
  GI50: 3.75 µM (inactive)
[40]
  GI50: 16.1 µM (inactive)
[41]
  GI50: 15.9 µM (inactive)
[42]
  GI50: 3.53 µM (inactive)
[43]
  GI50: 19.4 µM (inactive)
[44]
  GI50: 11.6 µM (inactive)
[45]
  GI50: 17.6 µM (inactive)
[46]
  GI50: 15 µM (inactive)
[47]
  GI50: 8.99 µM (inactive)
[48]
  GI50: 16.9 µM (inactive)
[49]
  GI50: 16.4 µM (inactive)
[50]
  GI50: 3.08 µM (inactive)
[51]
  GI50: 16.5 µM (inactive)
[52]
  GI50: 16.1 µM (inactive)
[53]
  GI50: 8.55 µM (inactive)
[54]
  GI50: 15.1 µM (inactive)
[55]
  GI50: 9.16 µM (inactive)
[56]
  GI50: 1.94 µM (inactive)
[57]
  GI50: 4.47 µM (inactive)
[58]
  GI50: 4.98 µM

## COc1cc2c(c(OC3OC(CO)C(O)C(O)C3O)c1)C(=O)CC(c1ccc(O)cc1)O2 (centres undefined)
[1]
  GI50: > 100 µM (inactive)
[2]
  GI50: > 100 µM (inactive)
[3]
  GI50: > 100 µM (inactive)
[4]
  GI50: > 100 µM (inactive)
[5]
  GI50: > 100 µM (inactive)
[6]
  GI50: > 100 µM (inactive)
[7]
  GI50: > 100 µM (inactive)
[8]
  GI50: > 100 µM (inactive)
[9]
  GI50: > 100 µM (inactive)
[10]
  GI50: > 100 µM (inactive)
[11]
  GI50: > 100 µM (inactive)
[12]
  GI50: > 100 µM (inactive)
[14]
  GI50: > 100 µM (inactive)
[15]
  GI50: > 100 µM (inactive)
[16]
  GI50: > 100 µM (inactive)
[17]
  GI50: > 100 µM (inactive)
[18]
  GI50: > 100 µM (inactive)
[19]
  GI50: > 100 µM (inactive)
[20]
  GI50: > 100 µM (inactive)
[21]
  GI50: > 100 µM (inactive)
[22]
  GI50: > 100 µM (inactive)
[23]
  GI50: > 100 µM (inactive)
[24]
  GI50: > 100 µM (inactive)
[25]
  GI50: > 10 µM (inactive)
[26]
  GI50: > 100 µM (inactive)
[27]
  GI50: > 100 µM (inactive)
[28]
  GI50: > 100 µM (inactive)
[29]
  GI50: > 100 µM (inactive)
[30]
  GI50: > 100 µM (inactive)
[31]
  GI50: > 100 µM (inactive)
[32]
  GI50: > 100 µM (inactive)
[33]
  GI50: > 100 µM (inactive)
[34]
  GI50: > 100 µM (inactive)
[35]
  GI50: > 100 µM (inactive)
[36]
  GI50: > 100 µM (inactive)
[37]
  GI50: > 100 µM (inactive)
[38]
  GI50: > 100 µM (inactive)
[39]
  GI50: > 100 µM (inactive)
[40]
  GI50: > 100 µM (inactive)
[41]
  GI50: > 100 µM (inactive)
[43]
  GI50: > 100 µM (inactive)
[44]
  GI50: > 100 µM (inactive)
[45]
  GI50: > 100 µM (inactive)
[46]
  GI50: > 100 µM (inactive)
[47]
  GI50: > 100 µM (inactive)
[48]
  GI50: > 100 µM (inactive)
[49]
  GI50: > 100 µM (inactive)
[50]
  GI50: > 100 µM (inactive)
[51]
  GI50: > 100 µM (inactive)
[52]
  GI50: > 100 µM (inactive)
[53]
  GI50: > 100 µM (inactive)
[54]
  GI50: > 100 µM (inactive)
[55]
  GI50: > 100 µM (inactive)
[56]
  GI50: > 100 µM (inactive)
[57]
  GI50: > 100 µM (inactive)
[58]
  GI50: > 100 µM
